Measurements published in the supplement of paper PMC10307832.

Assays:
Assay in all cases: relative viability (nuclei count vs DMSO), 5 days (fraction); higher = more cells survive
IPA-3 + AZD7762 = compound: C1=CC=C2C(=C1)C=CC(=C2SSC3=C(C=CC4=CC=CC=C43)O)O [IPA-3] + NC(=O)Nc1cc(-c2cccc(F)c2)sc1C(=O)N[C@H]1CCCNC1 [AZD7762] (partner 0.2 µM)
Method in brief: (§1)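 Relative viability equals treated-well nuclei counts divided by vehicle-well nuclei counts. Counts came from 4× images of lung cancer cell lines grown in 1536-well plates for 5 days after pin-tool dosing on the day after seeding. Dosing used one drug alone or a fixed anchor-drug dose plus five library-drug doses (not always all listed) in √10 steps, and values are medians of duplicate plates.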

Doramapimod + Linsitinib = compound: Cc1ccc(-n2nc(C(C)(C)C)cc2NC(=O)Nc2ccc(OCCN3CCOCC3)c3ccccc23)cc1 [Doramapimod] + C[C@]1(O)C[C@@H](c2nc(-c3ccc4ccc(-c5ccccc5)nc4c3)c3c(N)nccn32)C1 [Linsitinib] (partner 1 µM)
Method in brief: as §1

[1] = compound: Cc1ccc(-n2nc(C(C)(C)C)cc2NC(=O)Nc2ccc(OCCN3CCOCC3)c3ccccc23)cc1 [Doramapimod] + CC(=O)c1c(C)c2cnc(Nc3ccc(N4CCNCC4)cn3)nc2n(C2CCCC2)c1=O [Palbociclib] (partner 0.5 µM)
Method in brief: as §1

RAF265 + Palbociclib = compound: Cn1c(Nc2ccc(C(F)(F)F)cc2)nc2cc(Oc3ccnc(-c4ncc(C(F)(F)F)[nH]4)c3)ccc21 [RAF265] + CC(=O)c1c(C)c2cnc(Nc3ccc(N4CCNCC4)cn3)nc2n(C2CCCC2)c1=O [Palbociclib] (partner 0.5 µM)
Method in brief: as §1

| Cell Line | relative viability (IPA-3 + AZD7762; first compound 0.2 µM) | relative viability (IPA-3 + AZD7762; first compound 0.6325 µM) | relative viability (IPA-3 + AZD7762; first compound 2 µM) | relative viability (IPA-3 + AZD7762; first compound 6.325 µM) | relative viability (IPA-3 + AZD7762; first compound 20 µM) | relative viability (Doramapimod + Linsitinib; first compound 0.02 µM) | relative viability (Doramapimod + Linsitinib; first compound 0.06325 µM) | relative viability (Doramapimod + Linsitinib; first compound 0.2 µM) | relative viability (Doramapimod + Linsitinib; first compound 0.6325 µM) | relative viability (Doramapimod + Linsitinib; first compound 2 µM) | relative viability ([1]; first compound 0.02 µM) | relative viability ([1]; first compound 0.06325 µM) | relative viability ([1]; first compound 0.2 µM) | relative viability ([1]; first compound 0.6325 µM) | relative viability ([1]; first compound 2 µM) | relative viability (RAF265 + Palbociclib; first compound 0.01 µM) | relative viability (RAF265 + Palbociclib; first compound 0.03162 µM) | relative viability (RAF265 + Palbociclib; first compound 0.1 µM) | relative viability (RAF265 + Palbociclib; first compound 0.3162 µM) | relative viability (RAF265 + Palbociclib; first compound 1 µM) |
| --- | --- | --- | --- | --- | --- | --- | --- | --- | --- | --- | --- | --- | --- | --- | --- | --- | --- | --- | --- | --- |
| NCI-H1666 | 0.866 | 0.815 | 0.788 | 0.962 | 0.905 | 0.871 | 0.883 | 0.847 | 0.781 | 0.738 | 0.734 | 0.641 | 0.69 | 0.704 | 0.613 | 0.612 | 0.577 | 0.595 | 0.663 | 0.585 |
| NCI-H1734 | 0.637 | 0.508 | 0.624 | 0.571 | 0.496 | 0.864 | 0.755 | 0.721 | 0.767 | 0.662 | 0.204 | 0.308 | 0.314 | 0.299 | 0.27 | 0.384 | 0.319 | 0.324 | 0.286 | 0.221 |
| NCI-H1755 | 0.55 | 0.448 | 0.434 | 0.486 | 0.476 | 0.982 | 1 | 1.02 | 1.05 | 0.996 | 0.478 | 0.484 | 0.444 | 0.416 | 0.418 | 0.385 | 0.445 | 0.462 | 0.414 | 0.309 |
| NCI-H1792 | 0.97 | 0.519 |  | 0.604 | 0.572 | 0.434 | 0.434 | 0.536 | 0.615 | 0.351 | 0.701 | 0.645 | 0.598 | 0.596 | 0.546 | 0.658 | 0.676 | 0.758 | 0.474 | 0.298 |
| NCI-H1793 | 0.56 | 0.526 | 0.424 | 0.641 | 0.527 | 0.758 | 0.76 | 0.827 | 0.932 | 0.719 | 0.317 | 0.293 | 0.283 | 0.287 | 0.273 | 0.309 | 0.274 | 0.218 | 0.213 | 0.195 |
| NCI-H1915 | 0.77 | 0.713 | 0.693 | 0.68 | 0.694 | 1.1 | 1.17 | 1.1 | 1.12 | 1.09 | 0.507 | 0.547 | 0.469 | 0.525 | 0.487 | 0.525 | 0.435 | 0.438 | 0.236 | 0.147 |
